Measured values taken from ChEMBL document CHEMBL5518200, “Heterocyclic-Modified Imidazoquinoline Derivatives: Selective TLR7 Agonist Regulates Tumor Microenvironment against Melanoma” (J Med Chem, 2024).

What was measured:
[1] = target: T1, Toll-like receptor 7 (Homo sapiens, UniProt Q9NYK1); experiment: Agonist activity at TLR7 in HEK-Blue hTLR7 cells expressing NF-kappaB/AP-1 inducible SEAP assessed as increase in SEAP activity incubated for 24 hrs by QUANTI-Blue assay; type: cell-based
T1 sequence (Q9NYK1 whole entry): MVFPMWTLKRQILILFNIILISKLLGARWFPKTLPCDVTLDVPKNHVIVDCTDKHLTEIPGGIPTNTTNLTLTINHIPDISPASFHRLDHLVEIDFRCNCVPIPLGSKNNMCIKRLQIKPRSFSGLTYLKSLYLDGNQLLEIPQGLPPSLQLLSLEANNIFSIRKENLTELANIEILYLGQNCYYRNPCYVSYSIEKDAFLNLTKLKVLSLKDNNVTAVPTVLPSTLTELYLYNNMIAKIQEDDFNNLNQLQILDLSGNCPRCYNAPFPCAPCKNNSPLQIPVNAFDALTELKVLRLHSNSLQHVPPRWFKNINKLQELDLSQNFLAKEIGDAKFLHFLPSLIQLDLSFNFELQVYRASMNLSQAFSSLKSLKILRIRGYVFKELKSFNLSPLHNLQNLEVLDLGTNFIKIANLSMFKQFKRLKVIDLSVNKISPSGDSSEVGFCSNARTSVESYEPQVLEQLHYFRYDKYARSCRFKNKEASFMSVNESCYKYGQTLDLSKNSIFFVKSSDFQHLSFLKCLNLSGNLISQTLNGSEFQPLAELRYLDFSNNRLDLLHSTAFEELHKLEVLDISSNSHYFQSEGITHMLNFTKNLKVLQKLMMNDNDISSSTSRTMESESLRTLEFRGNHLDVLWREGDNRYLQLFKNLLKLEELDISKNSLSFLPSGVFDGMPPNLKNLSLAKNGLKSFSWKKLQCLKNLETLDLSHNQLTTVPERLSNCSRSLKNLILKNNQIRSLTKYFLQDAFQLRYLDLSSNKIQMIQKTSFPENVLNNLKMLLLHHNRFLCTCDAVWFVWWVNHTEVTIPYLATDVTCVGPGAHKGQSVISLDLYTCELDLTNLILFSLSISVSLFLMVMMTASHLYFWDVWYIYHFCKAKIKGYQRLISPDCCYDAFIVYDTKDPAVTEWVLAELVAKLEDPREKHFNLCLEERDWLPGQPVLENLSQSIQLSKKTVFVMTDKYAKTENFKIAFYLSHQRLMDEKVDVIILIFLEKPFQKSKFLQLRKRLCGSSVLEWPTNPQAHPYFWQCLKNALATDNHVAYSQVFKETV

[2] = Toxicity in C57BL/6J mouse implanted with mouse B16-F10 cells assessed as pathological changes in liver at 25 mg/kg, ip administered every 2 days starting from 3 days post tumor inoculation and measured on day 18 by H and E staining based analysis; type: organism-based; settings: in vivo, 360 h, time 15 day
[3] = Toxicity in C57BL/6J mouse implanted with mouse B16-F10 cells assessed as increase in systemic TNF-alpha secretion in serum at 25 mg/kg, ip administered every 2 days starting from 3 days post tumor inoculation and measured on day 18 by ELISA; type: organism-based; settings: in vivo, 360 h, time 15 day
[4] = Toxicity in C57BL/6J mouse implanted with mouse B16-F10 cells assessed as splenomegaly at 25 mg/kg, ip administered every 2 days starting from 3 days post tumor inoculation and measured on day 18; type: organism-based; settings: in vivo, 360 h, time 15 day
[5] = Toxicity in C57BL/6J mouse implanted with mouse B16-F10 cells assessed as physical abnormalities at 25 mg/kg, ip administered every 2 days starting from 3 days post tumor inoculation and measured on day 18; type: organism-based; settings: in vivo, 360 h, time 15 day
[6] = Toxicity in C57BL/6J mouse implanted with mouse B16-F10 cells assessed as pathological changes in heart at 25 mg/kg, ip administered every 2 days starting from 3 days post tumor inoculation and measured on day 18 by H and E staining based analysis; type: organism-based; settings: in vivo, 360 h, time 15 day
[7] = Toxicity in C57BL/6J mouse implanted with mouse B16-F10 cells assessed as increase in systemic IL-6 secretion in serum at 25 mg/kg, ip administered every 2 days starting from 3 days post tumor inoculation and measured on day 18 by ELISA; type: organism-based; settings: in vivo, 360 h, time 15 day
[8] = test system: L929; experiment: Cytotoxicity against mouse L929 cells assessed as reduction in cell viability upto 100 uM incubated for 24 hrs by CCK-8 assay; type: toxicity, cell-based; settings: l929, 24 h
[9] = Toxicity in C57BL/6J mouse implanted with mouse B16-F10 cells assessed as reduction in body weight at 2.5 to 20 mg/kg, ip administered every 2 days starting from 3 days post tumor inoculation and measured on day 18; type: organism-based; settings: in vivo, 360 h, dose 2.5-20 mg/kg, time 15 day
[10] = test system: L02; experiment: Cytotoxicity against human L02 cells assessed as reduction in cell viability upto 100 uM incubated for 24 hrs by CCK-8 assay; type: toxicity, cell-based; settings: l02, 24 h
[11] = target: T2, Toll-like receptor 7 (Mus musculus, UniProt P58681); experiment: Binding affinity to recombinant mouse TLR7 assessed as dissociation constant by SPR analysis
T2 sequence (P58681 whole entry): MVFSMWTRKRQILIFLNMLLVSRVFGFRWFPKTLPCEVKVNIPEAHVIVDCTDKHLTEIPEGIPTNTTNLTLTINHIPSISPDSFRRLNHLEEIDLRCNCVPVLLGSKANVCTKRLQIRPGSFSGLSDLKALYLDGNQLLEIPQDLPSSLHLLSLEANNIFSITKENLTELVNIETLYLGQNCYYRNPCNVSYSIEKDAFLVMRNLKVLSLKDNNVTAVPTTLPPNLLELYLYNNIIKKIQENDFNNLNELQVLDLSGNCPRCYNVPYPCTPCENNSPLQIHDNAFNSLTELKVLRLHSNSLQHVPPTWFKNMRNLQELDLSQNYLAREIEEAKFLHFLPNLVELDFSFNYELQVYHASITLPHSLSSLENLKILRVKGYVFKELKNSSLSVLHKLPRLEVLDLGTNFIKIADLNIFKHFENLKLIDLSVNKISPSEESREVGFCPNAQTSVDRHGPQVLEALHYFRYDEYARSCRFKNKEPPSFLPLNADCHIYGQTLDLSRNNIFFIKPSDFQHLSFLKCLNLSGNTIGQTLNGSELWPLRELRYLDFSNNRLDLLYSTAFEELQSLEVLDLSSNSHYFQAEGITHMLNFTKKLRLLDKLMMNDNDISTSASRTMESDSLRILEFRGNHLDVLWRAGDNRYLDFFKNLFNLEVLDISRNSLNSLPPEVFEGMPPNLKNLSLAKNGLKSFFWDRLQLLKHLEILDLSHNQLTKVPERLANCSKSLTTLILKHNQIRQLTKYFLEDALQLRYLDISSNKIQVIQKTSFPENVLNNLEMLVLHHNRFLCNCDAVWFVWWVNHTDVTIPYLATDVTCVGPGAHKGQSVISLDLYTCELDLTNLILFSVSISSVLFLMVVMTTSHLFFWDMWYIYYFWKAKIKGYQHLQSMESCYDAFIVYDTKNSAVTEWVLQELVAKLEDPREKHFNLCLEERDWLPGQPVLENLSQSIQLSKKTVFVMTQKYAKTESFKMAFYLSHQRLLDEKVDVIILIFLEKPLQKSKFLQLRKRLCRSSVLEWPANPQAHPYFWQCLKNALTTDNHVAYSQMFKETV

[12] = Toxicity in C57BL/6J mouse implanted with mouse B16-F10 cells assessed as behavioral abnormalities at 25 mg/kg, ip administered every 2 days starting from 3 days post tumor inoculation and measured on day 18; type: organism-based; settings: in vivo, 360 h, time 15 day
[13] = Toxicity in C57BL/6J mouse implanted with mouse B16-F10 cells assessed as pathological changes in kidney at 25 mg/kg, ip administered every 2 days starting from 3 days post tumor inoculation and measured on day 18 by H and E staining based analysis; type: organism-based; settings: in vivo, 360 h, time 15 day
[14] = test system: Peritoneal macrophage; experiment: Induction of M1 like macrophage polarization in mouse peritoneal macrophages assessed as decrease in CD206-positive cells at 10 ug/ml incubated for 24 hrs by flow cytometry analysis (reference value: 79%); type: functional; parameters: scale not given: the % may be the effect or the level left; settings: dose 10 µg/ml
[15] = test system: Peritoneal macrophage; experiment: Induction of M1 like macrophage polarization in mouse peritoneal macrophages assessed as increase in CD86-positive cells at 10 ug/ml incubated for 24 hrs by flow cytometry analysis (reference value: 18.4%); type: functional; settings: dose 10 µg/ml
[16] = test system: B16-F10; experiment: Antitumor immunity against mouse B16-F10 cells implanted in C57BL/6J mouse assessed as increase in intracellular granzyme B level in tumor CD8-positive T cells at 25 mg/kg, ip administered every 2 days starting from 3 days post tumor inoculation and measured on day 18 by flow cytometry analysis (reference value: 14.5%); type: functional; settings: time 15 day

With CCCCc1nc2c(N)nc3ccccc3c2n1Cc1ccc(OC)cc1 as the compound, how does the EC50 [1] read?
Its EC50 is over 20000 nM.

Which EC50 [1] does the source give for CCCc1nc2c(N)nc3ccccc3c2n1Cc1ccc(C(=O)OC)cc1 here?
The EC50 was over 20000 nM.

With CCCCc1nc2c(N)nc3ccccc3c2n1Cc1ccc(C(=O)NC)cc1 as the compound, how does the EC50 [1] read?
The EC50 was 226 nM.

Which Activity [2] does the source give for CCCCc1nc2c(N)nc3ccccc3c2n1CC1CCOC1 (stereo not given) here?
The Activity was “Non-Toxic”.

What about the Activity [3] of the same compound?
The Activity was “Non-Toxic”.

And the Activity [4]?
Its Activity is “Non-Toxic”.

What about the Activity [5] of the same compound?
Its Activity is “Non-Toxic”.

And the Activity [6]?
Its Activity is “Non-Toxic”.

And the Activity [7]?
The Activity was “Non-Toxic”.

And the Activity [8]?
Its Activity is “Non-Toxic”.

And the Activity [9]?
The Activity was “Non-Toxic”.

And the Activity [10]?
The Activity was “Non-Toxic”.

What about the Kd [11] of the same compound?
The Kd was 47.2 nM.

And the Activity [12]?
Its Activity is “Non-Toxic”.

What about the Activity [13] of the same compound?
The Activity was “Non-Toxic”.

With CCCCCc1nc2c(N)nc3ccccc3c2n1CC1CCOC1 (stereo not given) as the compound, how does the EC50 [1] read?
Its EC50 is 525 nM.

For CCCc1nc2c(N)nc3ccccc3c2n1CC1CCOC1 (stereo not given), which EC50 [1] is on record?
The EC50 was 3280 nM.

For CCOCc1nc2c(N)nc3ccccc3c2n1CC(C)(C)O [RESIQUIMOD], which Activity [14] is on record?
Its Activity is 29.8%.

What about the Activity [15] of the same compound?
Its Activity is 65.8%.

And the Activity [16]?
Its Activity is 49.9%.
